From PMC7797697 (Theranostics, 2021) come the findings set out here.

The test system of test [1] is MDA-MB-231 cells. In words: High-content epigenetic inhibitor screen, quantification of living cells. The format is cell-based, human. To be noted: 3 μM, 72 h. An excerpt: (§1) HeLa, MCF-7 and MDA-MB-231 cell lines were purchased from the American Type Culture Collection. MCF-10A, T-47D, PANC-1, A549, HCT-15, Caco-2, SMMC-7721, SH-SY5Y, HUVEC and PC-3 cell lines were obtained from the Chinese Academy of Medical Sciences. MEF was isolated from pregnant mice at 14‒16 days of pregnancy. Primary breast cancer cells were isolated from breast cancer patients. All media including Dulbecco Modified Eagle Medium (DMEM), RPMI 1640 Medium and DMEM/Nutrient Mixture F-12 were supplemented with 10% fetal bovine serum (FBS), 100 units/mL penicillin, and […] streptomycin (Gibco, Waltham, MA, USA). Cells were cultured in a humidified incubator equilibrated with 5% CO2 at 37 °C. Cells were treated for 24-72 h in adherent conditions with compounds from an epigenetic small molecule inhibitor library (L1200, Topscience, Shanghai, China).
(§2) Statistical analyses of all data were performed using GraphPad Prism (version 8.0, Graph Pad Software Inc., San Diego, CA, USA). All the data were analyzed by Student's t-test or one-way ANOVA. The Z-Score was chosen to evaluate the results and experimental deviation. Quantitative data are presented as the mean ± SD. The asterisk (*) denotes statistically significant difference (P < 0.05). IC50 was calculated using a four-parameter fit with variable slope in GraphPad Prism.
To identify potential anti-tumor inhibitors, we screened an epigenetic small molecule inhibitor library for anti-tumor activity in breast cancer cells. […] The selection strategy mainly comprised three stages, in which different concentrations (high to low) of inhibitors screened with a high-content analysis instrument were identified using cancer cell lines in a 96-well plate format (Figure 1A). For the first step, we treated cells with a high concentration of compounds to exclude compounds ineffective in killing cancer cells. MDA-MB-231 cells, a human breast cancer cell line, were treated with 167 epigenetic compounds (30 μM each) for 48 h, and then analyzed by high-content analysis, where changes in cell morphology relative to the control (dimethyl sulfoxide, DMSO) would indicate modulation of cancer cells by compound treatment. […] At the second step, we treated the cells with the 60 compounds at a median concentration (3 μM) for 72 h to screen for inhibitors that can kill cancer cells with high efficiency.

The test system of test [2] is MDA-MB-231 cells. The experiment in a line: Intracellular calcium measurement (Fluo-4-AM). To be noted: thrombin stimulation, different concentrations of the pan-HDAC inhibitors. The format is cell-based, human. Here is the method: After treatment, the cells were digested and seeded in 96-well black plates (Corning Costar, Cambridge, MA, USA) and cultured for 20 h. For measurement of [Ca^2+]i, the cells were labeled with Fluo-4-AM in serum-free medium for half an hour at room temperature. After washing with Dulbecco's Phosphate Buffered Saline (D-PBS), cells were overlaid in Hank's balanced salt solution (5.4 mM KCl, 1 mM MgCl2, 20 mM hydroxyethyl piperazineethanesulfonic acid (HEPES), 120 mM NaCl, 10 mM glucose, 0.2 mM Ethylenebis(oxyethylenenitrilo)tetraacetic acid (EGTA)). Continuous fluorescence intensity was detected after thrombin was added as a calcium agonist by an automated sampler. Response over baseline was assessed as a relative measure of [Ca^2+]i.
As previously stated, studies have shown that the Ca^2+ signals can modulate cancer progression by regulating migration, proliferation, cell stress, and apoptosis.
(In general: Calcium assays in cells follow changes in intracellular calcium, usually with a dye or a luminescent sensor.)

The test system of a further test is A549. In words: CCK8 assay IC50. The format is cell-based. Conditions: A549, lung cancer, 72 h. The protocol:
(§3) Cell viability was then detected using a CCK8 assay (MedChemExpress, USA) according to the manufacturer's instructions.
as §2
In general terms: Formazan colour is commonly taken as a measure of viable cells.

A further test has as its system HeLa. The experiment in a line: CCK8 assay IC50. Conditions: cervical cancer, 72 h. The format is cell-based. Here is the method: as §3, §2
The subject of another test is T-47D. In words: CCK8 assay IC50. To be noted: breast cancer, 72 h. The format is cell-based. Here is the method: as §3, §2
The subject of a further test is SMMC-7721. The experiment in a line: CCK8 assay IC50. The format is cell-based. To be noted: SMMC-7721, liver cancer, 72 h. The protocol:
as §3, §2

The test system of the next test is HCT-15. The experiment in a line: CCK8 assay IC50. The format is cell-based. To be noted: HCT-15, colon cancer, 72 h. The protocol: as §3, §2
A further test deals with SH-SY5Y. The experiment in a line: CCK8 assay IC50. The format is cell-based. To be noted: neuroblastoma, 72 h. The protocol: as §3, §2
A further test deals with PC-3. The experiment in a line: CCK8 assay IC50. To be noted: PC-3, prostatic cancer, 72 h. The format is cell-based. Here is the method: as §3, §2
For the next test, the system named is MCF-7. In words: CCK8 assay IC50. The format is cell-based. To be noted: MCF-7, breast cancer, 72 h, CCK8. The protocol:
as §3, §2

Another test concerns PANC-1. The experiment in a line: CCK8 assay IC50. To be noted: PANC-1, pancreatic cancer, 72 h. The format is cell-based. The protocol:
as §3, §2

The test system of the next test is Caco-2. The experiment in a line: CCK8 assay IC50. The format is cell-based. To be noted: Caco-2, colon cancer, 72 h. Here is the method:
as §3, §2

The test system of a further test is MEF. The experiment in a line: CCK8 assay IC50. The format is cell-based, mouse. To be noted: normal cells, 72 h.
Text: as §1, §3
(§4) Statistical analyses of all data were performed using GraphPad Prism (version 8.0, Graph Pad Software Inc., San Diego, CA, USA). All the data were analyzed by Student's t-test or one-way ANOVA. The Z-Score was chosen to evaluate the results and experimental deviation. Quantitative data are presented as the mean ± SD. […] IC50 was calculated using a four-parameter fit with variable slope in GraphPad Prism.

The next test relates to HUVEC. In words: CCK8 assay IC50. The format is cell-based, human. To be noted: normal cells, 72 h. The protocol: as §3, §2
A further test deals with MDA-MB-231. In words: CCK8 assay IC50. The format is cell-based, human. To be noted: MDA-MB-231, breast cancer, 72 h, CCK8. The protocol: as §3, §2
For test [3], the system named is Primary breast tumor cells. In words: CCK8 assay IC50. To be noted: breast cancer, 72 h. The format is cell-based, human.
Text: as §1, §3, §4

Several values for one entry are separate records, joined by “and”; a condition that tells them apart may be missing. Equal entries are not always repeated.

Regarding `Cc1cc(Nc2nc(N[C@@H](C)c3ccc(F)cc3)c(C#N)cc2F)[nH]n1` [AZ960], in the test on MDA-MB-231 cells [1], the “effect on cell survival” value is on record as “discernible effects on cell survival”.

As to `C#Cc1cccc(Nc2ncnc3cc(OC)c(OCCCCCCC(=O)NO)cc23)c1` [CUDC-101], the “effect on cell survival” value in the test with MDA-MB-231 cells [1] is on record as “discernible effects on cell survival”.

Take `CC(/C=C/C(=O)NO)=C\[C@@H](C)C(=O)c1ccc(N(C)C)cc1` [TSA, trichostatin A]: the “frequency and amplitude of [Ca^2+]i oscillations” value (from here on “frequency and amplitude”) in the test with MDA-MB-231 cells [2] was “did not alter the frequency and amplitude”. For the same compound, the “effect on cell survival” value in the test on MDA-MB-231 cells [1] is on record as “discernible effects on cell survival”. In addition, the IC50 came out at 1.31 µM in the test with A549; 0.572 µM in the test on HeLa; 0.905 µM in the test on T-47D; 3.27 µM in the test on SMMC-7721; 2.3 µM with HCT-15; 0.72 µM with SH-SY5Y. For the same compound, the IC50 in the test on PC-3 was 1.31 µM; in the test with MCF-7, 0.922 µM; in the test on PANC-1, 1.43 µM; with Caco-2 it was 3 µM; in the test with MEF, < 1 µM and 0.891 µM; in the test with HUVEC it was < 1 µM and 0.83 µM. Besides, the concentration for half-maximal inhibition (IC50) with MDA-MB-231 was 1 µM; in test [3], 2.31 µM.

For `O=C(/C=C/c1cccc(S(=O)(=O)Nc2ccccc2)c1)NO` [belinostat], the “effect on cell survival” value with MDA-MB-231 cells [1] is listed as “discernible effects on cell survival”.

On to `Cc1[nH]c2ccccc2c1CCNCc1ccc(/C=C/C(=O)NO)cc1` [panobinostat], for which, in the test on MDA-MB-231 cells [2], the “frequency and amplitude” value was “did not alter the frequency and amplitude”.

For `CCCCc1nc2cc(/C=C/C(=O)NO)ccc2n1CCN(CC)CC` [pracinostat], the “effect on cell survival” value in the test on MDA-MB-231 cells [1] was “discernible effects on cell survival”.

Turning to `O=C(CCCCCCC(=O)Nc1ccccc1)NO` [vorinostat], the “frequency and amplitude” value in the test with MDA-MB-231 cells [2] was “did not alter the frequency and amplitude”. Also, in the test on MDA-MB-231 cells [1], the “effect on cell survival” value is recorded as “discernible effects on cell survival”.

A word on the IC50: it is the concentration needed to halve the response being measured. A higher IC50 goes with lower potency.
